The results in this text go back to US11072633B2 (priority 2016, dated 2021).

In one experiment the test system is Mtb. The experiment is described as follows: Isoniazid MIC shift on Mtb MIC plates (broth microdilution MIC). The experiment is classed as cell-based, M. tuberculosis.
Another experiment deals with M. tuberculosis CDC1551. In words: microbe, parasite or virus in culture. In kind it is cell-based. The following applies: Mycobacterium tuberculosis.
A further experiment has as its system M. tuberculosis. The experiment is described as follows: Minimum Bactericidal Concentration (MBC). In kind it is cell-based. To be noted: Mycobacterium tuberculosis, 504 h; single compound; 2-log kill in 21 days; read-out: MBC.
Setting [1] is: CDC1551, TB drug alone, read-out: Aerobic MIC.

≈ marks a conversion by molar mass, not a printed value. Like-named read-outs stand apart in the source and are kept apart here.

In general, MBC refers to the smallest concentration meeting the test's criterion for killing.

`CC1C[C@@]2(C)C(=CC1=O)N(C)CC1C2CC[C@@]2(C)C1CC[C@@H]2C(=O)Nc1cc(C(C)(C)C)ccc1C(C)(C)C` (stereo partly shown) [Compound 104]: in the experiment on Mtb, the “Isoniazid MIC shift” value is “++ (4-8-fold ++)”. As to `COc1nc2ccc(Br)cc2cc1[C@@H](c1ccccc1)[C@@](O)(CCN(C)C)c1cccc2ccccc12` [BDQ, bedaquiline, reference compound], the MIC with M. tuberculosis CDC1551 (setting [1]) was found to be 0.1 µM (≈ 0.0556 µg/mL). For the same compound, the MBC in the experiment with M. tuberculosis was determined as 0.5 µM (≈ 0.278 µg/mL). In the case of `COc1c(N2C[C@@H]3CCCN[C@@H]3C2)c(F)cc2c(=O)c(C(=O)O)cn(C3CC3)c12` [MOXI, moxifloxacin], the MIC with M. tuberculosis CDC1551 (setting [1]) turned out to be 0.18 µM (≈ 0.0723 µg/mL). Consider `CC(C)(C)OC(=O)N1CC2C(CC[C@@]3(C)C2CC[C@@H]3C(=O)Nc2cc(C(F)(F)F)ccc2C(F)(F)F)[C@@]2(C)CCC(=O)C=C12` (stereo partly shown) [Compound 103], for which, in the experiment on Mtb, the “Isoniazid MIC shift” value is “+++ (>10-fold +++)”. `CCc1cc(C(N)=S)ccn1` [ETH, ethionamide]: the MIC with M. tuberculosis CDC1551 (CDC1551, read-out: Aerobic MIC) worked out at 12.5 µM (≈ 2.08 µg/mL).

In the case of `CC(=O)NC[C@H]1CN(c2ccc(N3CCOCC3)c(F)c2)C(=O)O1` [LIN, linezolid], the MIC in the experiment with M. tuberculosis CDC1551 (CDC1551, read-out: Aerobic MIC) amounted to 0.8 µM (≈ 0.27 µg/mL). For `CN1CC2C(CC[C@@]3(C)C2CC[C@@H]3C(=O)Nc2cc(C(C)(C)C)ccc2C(C)(C)C)[C@@]2(C)CCC(=O)C=C12` (stereo partly shown) [Compound 113], in the experiment with Mtb, the “Isoniazid MIC shift” value is listed as “+++ (>10-fold +++)”. The same measure, in the same setting: in the case of `CC(C)(C)c1cc(NC(=O)[C@H]2CCC3C4CNC5=CC(=O)CC[C@]5(C)C4CC[C@@]32C)cc(C(C)(C)C)c1` (stereo partly shown) [Compound 109] it was “++ (4-8-fold ++)”.

`COc1nc(OC(F)(F)F)c(NC(=O)C2CCC3C4CNC5=CC(=O)CC[C@]5(C)C4CC[C@]23C)cc1Br` (stereo partly shown) [Compound 105]: the “Isoniazid MIC shift” value in the experiment on Mtb is “+ (2-4-fold +)”. Further, in the experiment with M. tuberculosis CDC1551 (CDC1551, Pa (pretomanid) with 10 μM 6-azasteroid, read-out: Aerobic MIC of Pa), the MIC is 0.0002 µM.

For `CC(C)/N=c1\cc2n(-c3ccc(Cl)cc3)c3ccccc3nc-2cc1Nc1ccc(Cl)cc1` [CLOF, clofazimine], the MIC in the experiment on M. tuberculosis CDC1551 (setting [1]) came out at 2 µM (≈ 0.947 µg/mL).

As to `O=[N+]([O-])c1cn2c(n1)OC[C@@H](OCc1ccc(OC(F)(F)F)cc1)C2` [Pa, pretomanid], the MIC in the experiment with M. tuberculosis CDC1551 (setting [1]) was found to be 0.00625 µM (≈ 0.00225 µg/mL).
